From US20120122860A1, “SOLID FORMS OF SULFONAMIDES AND AMINO ACIDS” (Plexxikon, Inc., priority 2009, published 2012)
pIC50: −log10 of the molar value.

Experiments:
[1] = target: B-Raf V600E (Homo sapiens, UniProt P15056, V600E); experiment: Kinase activity assay, B-Raf V600E; assay type: biochemical; conditions: read-out: activity toward kinase B-Raf V600E, IC50
[2] = target: MAP4K4 (Homo sapiens, UniProt O95819); experiment: Kinase activity assay, MAP4K4
[3] = target: B-Raf (Homo sapiens, UniProt P15056); experiment: Kinase activity assay, B-Raf; assay type: biochemical; conditions: read-out: activity toward kinase B-Raf, IC50
[4] = target: C-Raf (Homo sapiens, UniProt P04049); experiment: Kinase activity assay, C-Raf
[5] = target: Kit (Homo sapiens, UniProt P10721); experiment: Kinase activity assay, Kit
[6] = target: T1, A-Raf (Homo sapiens, UniProt P10398); experiment: Kinase activity assay, A-Raf
T1 sequence (P10398 1-606): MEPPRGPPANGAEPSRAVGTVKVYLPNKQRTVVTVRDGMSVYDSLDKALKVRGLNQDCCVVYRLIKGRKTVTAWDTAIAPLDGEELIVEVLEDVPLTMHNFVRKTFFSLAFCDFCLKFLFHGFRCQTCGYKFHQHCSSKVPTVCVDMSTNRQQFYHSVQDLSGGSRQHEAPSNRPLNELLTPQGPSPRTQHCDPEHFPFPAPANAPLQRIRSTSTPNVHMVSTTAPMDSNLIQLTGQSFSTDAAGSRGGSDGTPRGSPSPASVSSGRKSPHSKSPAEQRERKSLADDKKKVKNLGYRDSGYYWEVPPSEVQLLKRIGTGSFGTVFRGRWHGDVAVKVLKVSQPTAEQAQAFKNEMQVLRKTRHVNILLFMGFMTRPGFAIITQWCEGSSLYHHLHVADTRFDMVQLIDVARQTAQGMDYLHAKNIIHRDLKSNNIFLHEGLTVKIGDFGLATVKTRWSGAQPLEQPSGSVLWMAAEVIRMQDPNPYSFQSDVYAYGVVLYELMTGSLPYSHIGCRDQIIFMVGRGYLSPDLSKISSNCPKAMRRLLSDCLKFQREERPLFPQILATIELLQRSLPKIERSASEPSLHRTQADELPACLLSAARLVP

[7] = target: Src (Homo sapiens, UniProt P12931); experiment: Kinase activity assay, Src
[8] = target: Kdr (Homo sapiens, UniProt P35968); experiment: Kinase activity assay, Kdr

Measured: pIC50

Chain of C-Raf (P04049 whole entry): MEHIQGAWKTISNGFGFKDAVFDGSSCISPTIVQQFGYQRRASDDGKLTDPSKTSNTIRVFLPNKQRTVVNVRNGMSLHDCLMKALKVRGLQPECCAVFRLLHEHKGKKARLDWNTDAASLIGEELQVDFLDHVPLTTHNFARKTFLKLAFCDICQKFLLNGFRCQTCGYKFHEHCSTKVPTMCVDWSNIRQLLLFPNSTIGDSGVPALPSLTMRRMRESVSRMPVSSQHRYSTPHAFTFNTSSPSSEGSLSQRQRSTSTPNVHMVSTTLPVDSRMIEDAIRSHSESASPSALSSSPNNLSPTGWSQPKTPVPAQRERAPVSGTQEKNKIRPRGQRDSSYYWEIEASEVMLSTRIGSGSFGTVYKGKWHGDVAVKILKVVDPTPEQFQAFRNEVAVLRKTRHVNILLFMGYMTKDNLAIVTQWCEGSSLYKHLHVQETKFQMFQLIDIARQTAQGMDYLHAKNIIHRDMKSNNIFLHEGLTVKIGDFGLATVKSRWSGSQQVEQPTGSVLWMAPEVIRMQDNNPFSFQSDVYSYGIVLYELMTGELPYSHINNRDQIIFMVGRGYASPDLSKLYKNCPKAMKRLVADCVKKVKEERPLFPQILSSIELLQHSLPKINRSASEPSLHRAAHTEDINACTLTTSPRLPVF
Chain of Src (P12931 whole entry): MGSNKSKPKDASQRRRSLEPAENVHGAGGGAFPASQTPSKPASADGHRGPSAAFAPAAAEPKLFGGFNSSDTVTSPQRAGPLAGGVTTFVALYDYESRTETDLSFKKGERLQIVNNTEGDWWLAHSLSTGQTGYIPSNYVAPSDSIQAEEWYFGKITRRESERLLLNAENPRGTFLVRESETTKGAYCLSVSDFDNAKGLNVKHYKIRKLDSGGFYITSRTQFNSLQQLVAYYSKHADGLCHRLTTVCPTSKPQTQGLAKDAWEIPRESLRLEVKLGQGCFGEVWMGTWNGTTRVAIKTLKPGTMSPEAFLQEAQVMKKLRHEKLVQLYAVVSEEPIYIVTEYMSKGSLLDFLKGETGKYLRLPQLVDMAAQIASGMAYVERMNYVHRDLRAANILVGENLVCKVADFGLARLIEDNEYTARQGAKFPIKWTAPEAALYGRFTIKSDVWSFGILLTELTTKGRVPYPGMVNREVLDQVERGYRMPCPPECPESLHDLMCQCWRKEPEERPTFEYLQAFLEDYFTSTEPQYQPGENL
Chain of Kit (P10721 26-976): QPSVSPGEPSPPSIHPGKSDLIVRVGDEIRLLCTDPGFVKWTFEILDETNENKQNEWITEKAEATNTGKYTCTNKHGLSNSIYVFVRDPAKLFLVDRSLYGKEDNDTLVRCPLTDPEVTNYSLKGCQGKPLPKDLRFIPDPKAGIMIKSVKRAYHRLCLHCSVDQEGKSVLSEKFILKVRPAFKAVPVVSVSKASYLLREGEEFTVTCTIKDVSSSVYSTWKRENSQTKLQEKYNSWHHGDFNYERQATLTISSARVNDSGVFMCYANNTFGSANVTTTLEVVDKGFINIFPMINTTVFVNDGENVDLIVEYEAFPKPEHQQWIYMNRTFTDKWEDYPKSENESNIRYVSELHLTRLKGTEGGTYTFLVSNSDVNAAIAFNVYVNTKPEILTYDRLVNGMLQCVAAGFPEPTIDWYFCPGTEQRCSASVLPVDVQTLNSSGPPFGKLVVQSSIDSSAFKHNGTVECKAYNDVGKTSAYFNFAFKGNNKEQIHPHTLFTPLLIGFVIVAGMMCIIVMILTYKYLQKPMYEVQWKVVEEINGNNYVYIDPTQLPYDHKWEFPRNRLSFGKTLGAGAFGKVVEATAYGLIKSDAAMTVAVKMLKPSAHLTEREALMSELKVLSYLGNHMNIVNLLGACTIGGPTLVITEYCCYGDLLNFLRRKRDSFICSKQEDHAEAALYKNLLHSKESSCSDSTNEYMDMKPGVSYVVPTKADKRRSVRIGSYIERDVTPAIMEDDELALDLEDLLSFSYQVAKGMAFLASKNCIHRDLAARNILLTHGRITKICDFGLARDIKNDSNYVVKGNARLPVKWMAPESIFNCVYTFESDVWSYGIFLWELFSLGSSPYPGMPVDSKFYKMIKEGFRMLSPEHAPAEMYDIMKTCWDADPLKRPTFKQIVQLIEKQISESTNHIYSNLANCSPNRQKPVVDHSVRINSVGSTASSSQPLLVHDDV
Chain of Kdr (P35968 20-1356): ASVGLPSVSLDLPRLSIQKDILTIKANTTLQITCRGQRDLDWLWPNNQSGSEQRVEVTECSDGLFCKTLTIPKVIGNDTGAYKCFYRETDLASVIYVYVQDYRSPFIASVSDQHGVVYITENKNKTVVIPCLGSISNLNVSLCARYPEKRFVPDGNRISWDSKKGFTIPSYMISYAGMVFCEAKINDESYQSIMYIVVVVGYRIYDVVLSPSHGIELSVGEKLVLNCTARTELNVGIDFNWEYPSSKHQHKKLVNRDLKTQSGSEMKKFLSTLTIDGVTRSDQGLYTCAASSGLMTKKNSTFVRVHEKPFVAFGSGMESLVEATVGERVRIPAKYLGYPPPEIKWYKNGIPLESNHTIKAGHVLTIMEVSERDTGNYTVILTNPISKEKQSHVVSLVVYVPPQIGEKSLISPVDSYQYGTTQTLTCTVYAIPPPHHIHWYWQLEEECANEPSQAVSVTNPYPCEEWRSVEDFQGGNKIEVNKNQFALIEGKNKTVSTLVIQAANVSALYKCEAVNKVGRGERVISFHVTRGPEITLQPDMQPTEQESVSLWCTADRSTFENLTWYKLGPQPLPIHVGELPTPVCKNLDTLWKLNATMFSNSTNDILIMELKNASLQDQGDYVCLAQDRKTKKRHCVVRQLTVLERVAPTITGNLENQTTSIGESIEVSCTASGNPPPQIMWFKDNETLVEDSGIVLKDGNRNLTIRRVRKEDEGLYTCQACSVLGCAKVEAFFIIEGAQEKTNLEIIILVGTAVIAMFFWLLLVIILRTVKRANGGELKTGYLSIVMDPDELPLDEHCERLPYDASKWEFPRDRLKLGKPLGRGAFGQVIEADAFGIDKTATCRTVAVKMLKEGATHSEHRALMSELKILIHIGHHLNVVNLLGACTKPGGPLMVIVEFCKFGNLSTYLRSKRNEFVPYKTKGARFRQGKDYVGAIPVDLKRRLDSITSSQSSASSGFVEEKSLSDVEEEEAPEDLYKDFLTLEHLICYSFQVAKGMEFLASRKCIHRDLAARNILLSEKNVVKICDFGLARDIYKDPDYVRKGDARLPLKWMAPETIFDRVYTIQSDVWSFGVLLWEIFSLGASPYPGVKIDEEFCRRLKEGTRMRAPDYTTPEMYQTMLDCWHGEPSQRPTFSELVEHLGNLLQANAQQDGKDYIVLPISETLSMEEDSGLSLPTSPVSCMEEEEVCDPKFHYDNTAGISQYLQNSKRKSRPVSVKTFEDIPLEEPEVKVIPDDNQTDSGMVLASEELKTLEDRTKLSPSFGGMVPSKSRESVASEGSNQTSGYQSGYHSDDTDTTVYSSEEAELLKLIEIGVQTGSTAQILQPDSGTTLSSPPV
Chain of B-Raf V600E (P15056 whole entry V600E): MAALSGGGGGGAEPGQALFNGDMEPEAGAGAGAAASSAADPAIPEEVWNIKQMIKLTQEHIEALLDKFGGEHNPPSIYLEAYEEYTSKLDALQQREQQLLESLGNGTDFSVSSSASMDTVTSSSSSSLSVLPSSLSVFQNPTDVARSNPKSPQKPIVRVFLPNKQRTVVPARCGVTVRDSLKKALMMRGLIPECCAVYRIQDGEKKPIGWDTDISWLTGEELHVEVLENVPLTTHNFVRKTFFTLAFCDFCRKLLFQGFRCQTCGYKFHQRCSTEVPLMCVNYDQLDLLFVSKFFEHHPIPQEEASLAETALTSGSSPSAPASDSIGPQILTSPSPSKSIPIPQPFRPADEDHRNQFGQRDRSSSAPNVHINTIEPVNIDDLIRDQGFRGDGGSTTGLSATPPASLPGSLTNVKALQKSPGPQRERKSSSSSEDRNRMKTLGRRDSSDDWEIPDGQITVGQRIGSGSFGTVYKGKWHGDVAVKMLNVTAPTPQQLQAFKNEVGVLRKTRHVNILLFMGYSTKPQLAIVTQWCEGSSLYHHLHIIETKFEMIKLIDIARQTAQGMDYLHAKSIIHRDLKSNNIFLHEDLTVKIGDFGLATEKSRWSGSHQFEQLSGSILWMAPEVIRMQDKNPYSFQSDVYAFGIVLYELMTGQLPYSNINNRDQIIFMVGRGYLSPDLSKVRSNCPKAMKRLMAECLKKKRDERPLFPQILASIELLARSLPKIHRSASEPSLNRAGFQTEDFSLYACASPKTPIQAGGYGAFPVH
Chain of B-Raf (P15056 whole entry): as the sequence (P15056 whole entry V600E) above, with E600V counted along it

COc1cnc2[nH]cc(C(=O)c3c(F)ccc(NS(=O)(=O)c4ccccc4F)c3F)c2c1 [P-2009, N-[2,4-Difluoro-3-(5-methoxy-1H-pyrrolo[2,3-b]pyridine-3-carbonyl)-phenyl]-2-fluoro-benzenesulfonamide]
≥ 5.00: all assays above

N#Cc1cnc2[nH]cc(C(=O)c3c(F)ccc(NS(=O)(=O)c4ccccc4F)c3F)c2c1 [P-2011, N-[3-(5-Cyano-1H-pyrrolo[2,3-b]pyridine-3-carbonyl)-2,4-difluoro-phenyl]-2-fluoro-benzenesulfonamide]
≥ 5.00: all assays above

Cc1cnc2[nH]cc(C(=O)c3c(F)ccc(NS(=O)(=O)c4ccccc4F)c3F)c2c1 [P-2014, N-[2,4-Difluoro-3-(5-methyl-1H-pyrrolo[2,3-b]pyridine-3-carbonyl)-phenyl]-2-fluoro-benzenesulfonamide]
≥ 5.00: all assays above

Cc1cnc2[nH]cc(C(=O)c3c(F)ccc(NS(=O)(=O)c4cccc(F)c4)c3F)c2c1 [P-2016, N-[2,4-Difluoro-3-(5-methyl-1H-pyrrolo[2,3-b]pyridine-3-carbonyl)-phenyl]-3-fluoro-benzenesulfonamide]
≥ 5.00: all assays above

O=C(c1c(F)ccc(NS(=O)(=O)c2cccc(F)c2)c1F)c1c[nH]c2nccc(Cl)c12 [P-2019, N-[3-(4-Chloro-1H-pyrrolo[2,3-b]pyridine-3-carbonyl)-2,4-difluoro-phenyl]-3-fluoro-benzenesulfonamide]
≥ 5.00: all assays above

N#Cc1ccnc2[nH]cc(C(=O)c3c(F)ccc(NS(=O)(=O)c4cc(F)ccc4F)c3F)c12 [P-2036, N-[3-(4-Cyano-1H-pyrrolo[2,3-b]pyridine-3-carbonyl)-2,4-difluoro-phenyl]-2,5-difluoro-benzenesulfonamide]
≥ 5.00: all assays above

CCCS(=O)(=O)Nc1ccc(F)c(C(=O)c2c[nH]c3ncc(-c4ccc(N5CCCC5)nc4)cc23)c1F [P-2231, Propane-1-sulfonic acid {2,4-difluoro-3-[5-(6-pyrrolidin-1-yl-pyridin-3-yl)-1H-pyrrolo[2,3-b]pyridine-3-carbonyl]-phenyl}-amide]
≥ 5.00: all assays above

CCS(=O)(=O)Nc1ccc(F)c(C(=O)c2c[nH]c3ncc(OC)cc23)c1F [P-2272, Ethanesulfonic acid [2,4-difluoro-3-(5-methoxy-1H-pyrrolo[2,3-b]pyridine-3-carbonyl)-phenyl]-amide]
≥ 5.00: all assays above

CC(C)S(=O)(=O)Nc1ccc(F)c(C(=O)c2c[nH]c3ncc(Cl)cc23)c1F [P-2275, Propane-2-sulfonic acid [3-(5-chloro-1H-pyrrolo[2,3-b]pyridine-3-carbonyl)-2,4-difluoro-phenyl]-amide]
≥ 5.00: all assays above

CS(=O)(=O)Nc1ccc(F)c(C(=O)c2c[nH]c3nccc(Cl)c23)c1F [P-2290, N-[3-(4-Chloro-1H-pyrrolo[2,3-b]pyridine-3-carbonyl)-2,4-difluoro-phenyl]-methanesulfonamide]
≥ 5.00: all assays above

CCCC(C)S(=O)(=O)Nc1ccc(F)c(C(=O)c2c[nH]c3ncc(C)cc23)c1F (stereo not drawn) [P-2315, Pentane-2-sulfonic acid [2,4-difluoro-3-(5-methyl-1H-pyrrolo[2,3-b]pyridine-3-carbonyl)-phenyl]-amide]
not listed: [3] | [4]
≥ 5.00: all other assays above

COc1cnc2[nH]cc(C(=O)c3c(F)ccc(NS(=O)(=O)CCC(F)(F)F)c3F)c2c1 [P-2327, 3,3,3-Trifluoro-propane-1-sulfonic acid [2,4-difluoro-3-(5-methoxy-1H-pyrrolo[2,3-b]pyridine-3-carbonyl)-phenyl]-amide]
≥ 5.00: all assays above

Cc1cnc2[nH]cc(C(=O)c3c(F)ccc(NS(=O)(=O)CCC(F)(F)F)c3F)c2c1 [P-2328, 3,3,3-Trifluoro-propane-1-sulfonic acid [2,4-difluoro-3-(5-methyl-1H-pyrrolo[2,3-b]pyridine-3-carbonyl)-phenyl]-amide]
≥ 5.00: all assays above

O=C(c1c(F)ccc(NS(=O)(=O)CCC(F)(F)F)c1F)c1c[nH]c2nccc(Cl)c12 [P-2329, 3,3,3-Trifluoro-propane-1-sulfonic acid [3-(4-chloro-1H-pyrrolo[2,3-b]pyridine-3-carbonyl)-2,4-difluoro-phenyl]-amide]
≥ 5.00: all assays above

COc1cnc2[nH]cc(C(=O)c3c(F)ccc(NS(=O)(=O)CC(F)(F)F)c3F)c2c1 [P-2335, 2,2,2-Trifluoro-ethanesulfonic acid [2,4-difluoro-3-(5-methoxy-1H-pyrrolo[2,3-b]pyridine-3-carbonyl)-phenyl]-amide]
≥ 5.00: all assays above

O=C(c1c(F)ccc(NS(=O)(=O)CC(F)(F)F)c1F)c1c[nH]c2nccc(Cl)c12 [P-2338, 2,2,2-Trifluoro-ethanesulfonic acid [3-(4-chloro-1H-pyrrolo[2,3-b]pyridine-3-carbonyl)-2,4-difluoro-phenyl]-amide]
≥ 5.00: all assays above

COc1cnc2[nH]cc(C(=O)c3c(F)ccc(NS(=O)(=O)C(F)(F)F)c3F)c2c1 [P-2347, N-[2,4-Difluoro-3-(5-methoxy-1H-pyrrolo[2,3-b]pyridine-3-carbonyl)-phenyl]-C,C,C-trifluoro-methanesulfonamide]
≥ 5.00: all assays above

O=C(c1c(F)ccc(NS(=O)(=O)C2CCCCC2)c1F)c1c[nH]c2nccc(Cl)c12 [P-2367, Cyclohexanesulfonic acid [3-(4-chloro-1H-pyrrolo[2,3-b]pyridine-3-carbonyl)-2,4-difluoro-phenyl]-amide]
not listed: [8]
≥ 5.00: all other assays above
